Reference: patent US12459919B2, “Polymorphic forms of (R)-4-(1-((3-(difluoromethyl)-1-methyl-1H-pyrazol-4-yl)sulfonyl)-1- fluoroethyl)-N-(isoxazol-3-yl)piperidine-1-carboxamide” (MyoKardia, Inc., priority 2019, dated 2025)

Legend:
[1] = target: bovine cardiac myosin (Bos taurus, UniProt Q9BE39); assay: Myosin activation assay (PK/LDH-coupled ATPase, skinned myofibrils); type: biochemical; settings: concentration at which total response is increased by twenty percent
Procedure: Small molecule agents were assessed for their ability to activate the enzymatic activity of bovine cardiac myosin using a biochemical assay that couples the release of ADP (adenosine diphosphate) from cardiac myosin to an enzymatic coupling system consisting of pyruvate kinase and lactate dehydrogenase (PK/LDH) and monitoring the absorbance decrease of NADH (at 340 nm) as a function of time. PK converts ADP to ATP (adenosine triphosphate) by converting PEP (phosphoenolpyruvate) to pyruvate. Pyruvate is then converted to lactate by LDH by converting NADH (nicotinamide adenine dinucleotide) to NAD (oxidized nicotinamide adenine dinucleotide). […] Prior to testing small molecule agents, the bovine myofibrils were assessed for their calcium responsiveness and the calcium concentration that achieves either a 50% (pCa50 or pCa=˜6) or <5% (pCa=10) activation of the myofibril system was chosen as the final condition for assessing the activation activity of the small molecule agents. […]
A dilution series of compound was created in DMSO such that the final desired concentration of compound would be achieved in a volume of […] with a fixed DMSO concentration of 3.3% (v/v). […] The reaction progress was followed in a PerkinElmer Envision plate reader at ambient temperature using clear bottom plates. The plate reader was configured to read absorbance at 340 nm in kinetics mode for 15 minutes. […]

[2] = system: adult rat ventricular myocytes; assay: Cardiomyocyte contractility assay (fractional shortening, IonOptix); type: cell-based; settings: 5 minutes perfusion, 1 Hz pacing
Procedure: Contractility of adult rat ventricular myocytes is determined by edge detection with an IonOptix contractility system. Aliquots of myocytes in Tyrode buffer (137 mM NaCl, 3.7 mM KCl, 0.5 mM MgCl2, 1.5 mM CaCl2, 4 mM HEPES, 11 mM glucose) are placed in a perfusion chamber (Series 20 RC-27NE; Warner Instruments), allowed to adhere to the coverslip, and then perfused with 37° C. Tyrode buffer. Myocytes are filed stimulated at 1 Hz and 10V. Only myocytes with clear striations, quiescent prior to pacing, with a cell length of 120-180 microns, a basal fractional shortening equal to 3-8% of the cell length, and a contraction velocity greater than 100 microns per second are used for contractility experiments. To determine the response to compounds, myocytes are first perfused for 60 seconds with Tyrodes buffer followed by 5 minutes of compound and a 140 second washout with Tyrodes buffer. Data is continuously recorded using IonOptix software. Contractility data is analyzed using Ionwizard software (IonOptix). For each cell, 10-20 contractility transients were averaged and compared under basal (no compound) and compound-treated conditions. Compound activity is measured by effects on fractional shortening (FS), where fractional shortening is the ratio of the peak length of the cell at contraction divided by the basal cell length normalized to 100% for an untreated cell.

[3] = DVS isotherm (hygroscopicity); type: physicochemical
[4] = Polymorph relative stability, interconversion slurring experiments; type: physicochemical

Chain of bovine cardiac myosin (Q9BE39 whole entry): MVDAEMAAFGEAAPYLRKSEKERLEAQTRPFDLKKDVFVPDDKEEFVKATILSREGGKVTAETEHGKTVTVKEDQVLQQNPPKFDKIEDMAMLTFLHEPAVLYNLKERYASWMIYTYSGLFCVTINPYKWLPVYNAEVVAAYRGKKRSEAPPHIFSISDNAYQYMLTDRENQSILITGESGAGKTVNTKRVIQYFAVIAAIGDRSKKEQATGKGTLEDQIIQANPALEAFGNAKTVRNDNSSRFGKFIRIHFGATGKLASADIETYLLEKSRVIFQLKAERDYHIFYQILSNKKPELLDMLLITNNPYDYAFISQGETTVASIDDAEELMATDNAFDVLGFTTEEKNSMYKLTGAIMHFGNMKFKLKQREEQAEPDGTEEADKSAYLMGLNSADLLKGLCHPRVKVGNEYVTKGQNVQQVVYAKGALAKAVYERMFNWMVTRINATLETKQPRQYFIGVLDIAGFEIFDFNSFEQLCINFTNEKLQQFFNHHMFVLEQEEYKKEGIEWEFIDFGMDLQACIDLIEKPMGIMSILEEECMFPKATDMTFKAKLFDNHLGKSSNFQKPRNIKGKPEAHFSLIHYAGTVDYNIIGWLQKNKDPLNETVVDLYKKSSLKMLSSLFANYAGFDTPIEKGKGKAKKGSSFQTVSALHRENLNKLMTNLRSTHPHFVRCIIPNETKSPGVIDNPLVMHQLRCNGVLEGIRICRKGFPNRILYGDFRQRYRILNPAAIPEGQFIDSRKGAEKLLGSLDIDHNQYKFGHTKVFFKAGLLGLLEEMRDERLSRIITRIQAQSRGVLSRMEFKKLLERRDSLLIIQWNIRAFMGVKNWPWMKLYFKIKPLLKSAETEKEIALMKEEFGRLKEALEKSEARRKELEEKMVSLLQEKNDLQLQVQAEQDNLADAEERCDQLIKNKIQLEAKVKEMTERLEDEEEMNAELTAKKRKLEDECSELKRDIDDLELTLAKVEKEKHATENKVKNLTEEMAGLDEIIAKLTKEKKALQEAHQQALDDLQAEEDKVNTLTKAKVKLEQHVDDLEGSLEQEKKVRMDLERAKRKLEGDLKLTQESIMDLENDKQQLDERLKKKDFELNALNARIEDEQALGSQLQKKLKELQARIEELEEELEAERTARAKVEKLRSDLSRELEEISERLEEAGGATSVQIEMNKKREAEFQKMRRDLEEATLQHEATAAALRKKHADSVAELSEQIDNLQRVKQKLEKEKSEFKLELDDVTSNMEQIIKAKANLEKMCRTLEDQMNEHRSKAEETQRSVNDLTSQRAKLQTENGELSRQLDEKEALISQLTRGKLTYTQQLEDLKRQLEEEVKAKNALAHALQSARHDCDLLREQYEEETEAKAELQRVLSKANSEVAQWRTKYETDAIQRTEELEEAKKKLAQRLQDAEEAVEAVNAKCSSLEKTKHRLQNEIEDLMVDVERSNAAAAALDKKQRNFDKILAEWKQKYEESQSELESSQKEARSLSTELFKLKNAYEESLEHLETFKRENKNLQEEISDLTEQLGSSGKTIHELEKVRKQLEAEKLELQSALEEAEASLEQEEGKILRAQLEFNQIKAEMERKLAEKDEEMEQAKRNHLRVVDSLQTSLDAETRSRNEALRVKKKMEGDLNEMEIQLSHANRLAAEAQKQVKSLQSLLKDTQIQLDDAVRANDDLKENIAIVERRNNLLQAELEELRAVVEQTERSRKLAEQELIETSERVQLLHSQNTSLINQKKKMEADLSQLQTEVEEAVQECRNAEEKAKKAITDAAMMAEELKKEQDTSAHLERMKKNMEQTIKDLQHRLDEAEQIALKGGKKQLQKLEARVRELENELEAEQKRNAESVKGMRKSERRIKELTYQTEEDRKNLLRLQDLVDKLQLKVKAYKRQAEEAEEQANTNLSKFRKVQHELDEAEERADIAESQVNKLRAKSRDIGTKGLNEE
Chain of bovine cardiac myosin (P85100 whole entry partner): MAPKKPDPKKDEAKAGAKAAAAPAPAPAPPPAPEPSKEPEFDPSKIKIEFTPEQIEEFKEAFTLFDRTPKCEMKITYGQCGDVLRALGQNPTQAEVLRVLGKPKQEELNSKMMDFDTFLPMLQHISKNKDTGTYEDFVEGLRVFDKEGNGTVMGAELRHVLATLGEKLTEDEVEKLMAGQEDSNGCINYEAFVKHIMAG
Chain of bovine cardiac myosin (Q3SZE5 whole entry partner): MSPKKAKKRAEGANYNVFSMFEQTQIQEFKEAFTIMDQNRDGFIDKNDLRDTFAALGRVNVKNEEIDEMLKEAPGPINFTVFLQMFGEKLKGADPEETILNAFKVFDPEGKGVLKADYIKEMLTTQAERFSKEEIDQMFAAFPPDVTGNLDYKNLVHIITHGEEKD

Row | Compound | Myosin Activation (AC20) [1] | Activity at 3.0 uM (fractional shortening activation over basal) ([2]; 3.0 uM compound) | Activity at 10 uM (fractional shortening activation over basal) ([2]; 10 uM compound) | Hygroscopic character (DVS isotherm) [3] | Relative stability of polymorphs ([4]; 1:1 (w/w) forms A+εD and B slurried 18 hours in acetonitrile and water mixture, range of RT to 70° C.) | Polymorph stability ranking ([4]; compared to Form A, Form C, and Form D)
1 | Cn1cc(S(=O)(=O)[C@@](C)(F)C2CCN(C(=O)Nc3ccon3)CC2)c(C(F)F)n1 [Form A, (R)-4-(1-((3-(difluoromethyl)-1-methyl-1H-pyrazol-4-yl)sulfonyl)-1-fluoroethyl)-N-(isoxazol-3-yl)piperidine-1-carboxamide] | +++ (myosin activation value AC20 < 2 μM) | + (fractional shorting activation <20% over basal) | ++ (fractional shorting activation values from 20% to 50% over basal) | non-hygroscopic |  | 
2 | Cn1cc(S(=O)(=O)[C@@](C)(F)C2CCN(C(=O)Nc3ccon3)CC2)c(C(F)F)n1 [Form B, (R)-4-(1-((3-(difluoromethyl)-1-methyl-1H-pyrazol-4-yl)sulfonyl)-1-fluoroethyl)-N-(isoxazol-3-yl)piperidine-1-carboxamide] |  |  |  | nonhygroscopic | more stable compared to Form A | most stable polymorph
